pKi: −log10 of the molar value.
Experiments:
[1] = biological target: phenylethanolamine N-methyltransferase; test: inhibition of phenylethanolamine N-methyltransferase in vitro; assay type: biochemical; conditions: for pKi: enzyme inhibition dissociation constant, calculated according to Chou
Description: Chem. Path. Pharm. 17:201-213, 1977, at various compound concentrations. From the data received, the enzyme inhibition dissociation constants (Ki values) were calculated according to mathematical procedures described by Chou, Mol. Pharm. 10:235-247, 1974.
The Ki value of a preferred compound of this invention, 4,5-dichloro-2-indanamine, was compared with other closely related compounds.

[2] = system: adrenal epinephrine/norepinephrine ratio; test: in vivo adrenal epinephrine/norepinephrine ratio in mice (PNMT inhibition); conditions: for E/NE Ratio: male mice, 50 mg/kg p.o. daily dose, seven days, n = 5
Description: Male mice were dosed orally with either drug or vehicle control on a twice-a-day basis for seven consecutive days.
On the morning of the next day they were again dosed with two hours later sacrificed by decapitation. The adrenal glands were then removed and analyzed fluorometrically for both epinephrine and norepinephrine content.

[3] = Experiment 1, control 2.6 ± .1, ^b (SK & F 82566) significantly different from control, p <.001

SMILES | pKi [1] | E/NE Ratio [2, 3] | E/NE Ratio ([2]; Experiment 2, control 2.0 ± .05) | potency of inhibition (in words) ([1]; compared with the other compounds of Table I) | lowering of adrenal epinephrine/norepinephrine ratio (in words) ([2]; only this compound, under the conditions of this study)
NC1Cc2ccccc2C1 [SK & F 8851] | 5.00 | 2.4 | – | – | –
NC1Cc2cc(Cl)c(Cl)cc2C1 [SK & F 50070] | 6.00 | 2.2 | – | – | –
NC1CCc2c1ccc(Cl)c2Cl (centres unmarked) [SK & F 82520] | 6.40 | – | 1.8 | – | –
NC1Cc2ccc(Cl)c(Cl)c2C1 (centres unmarked) [SK & F 82566, 4,5-dichloro-2-indanamine] | 7.70 | 1.1 | – | much more potent inhibitor than the other compounds | significantly lowered the adrenal epinephrine/norepinephrine ratio
NC1CCc2ccc(Cl)c(Cl)c21 (centres unmarked) [SK & F 82570] | < 6.00 | – | – | – | –
